US20200131196A1 (Mount Tam Therapeutics, Inc., priority 2017, published 2020)
Read-outs that look alike come from different tables or passages of the source.

Assays:
[1] = mouse, in vivo, ip
Text: (§1) Tumor growth was monitored daily. […] Significance was set at p≤0.05.

TORC1 = molecular target: T1, TORC1 (Homo sapiens, UniProt P42345+P62942); experiment: TORC1 inhibition in PC3 cells (Western blot, phospho-rpS6); type: cell-based
T1 construct: endogenous in cells; host or cells: PC3 cells
Method: Equal amounts of protein were resolved by SDS-PAGE and transferred to nitrocellulose membrane using the Invitrogen Nu-Page system. […] The following day, blots were washed 3 times in TBST, incubated for 2 hr with secondary antibodies (donkey anti rabbit hrp conjugated), and finally washed an additional 3 times in TBST. ECL Prime (Amersham) was used to detect the proteins of interest and ImageJ was used to quantify blots.

[2] = at 30 days
Text: as §1
Wherever Body Wt. % Δ from Baseline, Mean is given: test concentration or dose not given here.
Wherever Body Wt. % Δ from Baseline, Median is given: test concentration or dose not given here.
Wherever Change in Body Weight Day 1-30, Mean is given: test concentration or dose not given here.
Wherever Change in Body Weight Day 1-30, Median is given: test concentration or dose not given here.
Wherever Day 30 Body Weight, Mean is given: test concentration or dose not given here.
Wherever Day 30 Body Weight, Median is given: test concentration or dose not given here.

CO[C@H]1C[C@@H]2CC[C@@H](C)[C@@](O)(O2)C(=O)C(=O)N2CCCC[C@H]2C(=O)O[C@H]([C@H](C)C[C@H]2C[C@H]3C[C@@H]2C[C@@H]3O)CC(=O)[C@H](C)/C=C(\C)[C@@H](O)[C@@H](OC)C(=O)[C@H](C)C[C@H](C)/C=C/C=C/C=C/1C [Formula II, C37-[(1R,2S,4R,5S)-5-hyhroxybicyclo[2.2.1]heptane] rapamycin]
Body Wt. % Δ from Baseline, Mean [1]: 14.68% | Body Wt. % Δ from Baseline, Median [1]: 14.64% | Change in Body Weight Day 1-30, Mean [1]: 3.13 | Change in Body Weight Day 1-30, Median [1]: 3.08 | Day 30 Body Weight, Mean [1]: 24.37 g | Day 30 Body Weight, Median [1]: 24.12 g | TORC1/TORC2 Selectivity (TORC1): 50x | selectivity of mTORC1 vs mTORC2 inhibition compared with the polyketide disclosed in U.S. Pat. No. 9,382,266 (in words) (TORC1): less selectively | IC50 (TORC1; Western blot): 0.099 nM | Percent Survival [2]: 100% | Percent Survival ([2]; listed as Formula I): 100%
